What was measured:
Tyrosinase [1] = target: T1, Tyrosinase (Agaricus bisporus, UniProt O42713); assay: Inhibition of diphenolase activity of mushroom tyrosinase preincubated for 10 mins followed by addition of L-DOPA measured for 5 mins by spectrophotometry
T1 sequence (O42713 whole entry): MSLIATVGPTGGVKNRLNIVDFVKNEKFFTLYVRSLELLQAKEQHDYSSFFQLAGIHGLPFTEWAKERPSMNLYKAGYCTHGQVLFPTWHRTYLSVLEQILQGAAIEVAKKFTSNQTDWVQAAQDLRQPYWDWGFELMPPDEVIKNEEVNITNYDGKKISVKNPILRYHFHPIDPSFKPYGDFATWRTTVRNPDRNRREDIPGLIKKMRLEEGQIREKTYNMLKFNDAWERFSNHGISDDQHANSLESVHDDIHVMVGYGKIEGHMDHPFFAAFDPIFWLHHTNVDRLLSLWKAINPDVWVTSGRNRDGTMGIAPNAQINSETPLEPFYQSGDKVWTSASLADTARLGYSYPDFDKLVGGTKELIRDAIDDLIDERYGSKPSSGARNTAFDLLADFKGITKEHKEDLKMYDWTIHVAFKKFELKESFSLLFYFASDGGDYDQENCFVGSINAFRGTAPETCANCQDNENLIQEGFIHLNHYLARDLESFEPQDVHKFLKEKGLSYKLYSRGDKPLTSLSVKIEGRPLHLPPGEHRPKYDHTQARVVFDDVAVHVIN

Tyrosinase [2] = target: T1, Tyrosinase; assay: Noncompetitive inhibition of diphenolase activity of mushroom tyrosinase preincubated for 10 mins followed by addition of L-DOPA measured for 5 mins by Lineweaver-Burk plot analysis

SMILES	IC50 (Tyrosinase [1])	Ki (Tyrosinase [2])
O=C(O)CSc1nnc(NC(=S)Nc2ccc(Cl)cc2)s1	26.3 µM	
O=C(O)CSc1nnc(NC(=S)Nc2ccccc2)s1	27.7 µM	
O=C(O)CSc1nnc(NC(=S)Nc2ccc(F)c(F)c2)s1	20.5 µM	
O=C(O)CSc1nnc(NC(=S)Nc2ccc(F)cc2)s1	20.9 µM	
O=C(O)CSc1nnc(NC(=S)Nc2ccc(F)c(Cl)c2)s1	33.9 µM	
O=C(O)CSc1nnc(NC(=S)Nc2ccc(F)cc2F)s1	20.1 µM	
COc1ccccc1NC(=S)Nc1nnc(SCC(=O)O)s1	27.1 µM	
O=C(O)CSc1nnc(NC(=S)Nc2cccc(F)c2)s1	31.3 µM	
O=C(O)CSc1nnc(NC(=S)Nc2cccc(C(F)(F)F)c2)s1	6.13 µM	8.13 µM
O=C(O)CSc1nnc(NC(=S)Nc2cccc(Cl)c2)s1	59.7 µM	
Cc1ccc(NC(=S)Nc2nnc(SCC(=O)O)s2)cc1	54.4 µM	

Source: ChEMBL document CHEMBL3779795, “Design and synthesis of thiourea derivatives with sulfur-containing heterocyclic scaffolds as potential tyrosinase inhibitors” (Bioorg Med Chem, 2016)
